According to patent US9850247B2 (Almac Discovery Limited, priority 2013, dated 2017):
pIC50: −log10 of the molar value.

Biological target: T1, Wee-1 kinase (Homo sapiens, UniProt P30291)
T1 construct: purchased Invitrogen PV3817
Assay: Measurement of Wee-1 kinase activity (ADP-Glo luminescent kit)
Format: biochemical
Description: Method 1: Measurement of Wee-1 Kinase Activity
In the measurement of Wee-1 activity, a commercial peptide Poly(Lys Tyr (4:1)) hydrobromide was purchased from Sigma Aldrich and used as the substrate. Activated Wee-1 kinase was purchased from Invitrogen (PV3817) and an ADP-Glo luminescent kit was purchased from Promega.
All reactions took place in […] volumes in reaction buffer containing 40 mM Tris-HCl and 20 mM magnesium chloride, supplemented with 0.1 mg/mL bovine serum albumin and 2 mM DTT. Compounds were serially diluted in buffer and 5 μL of each concentration pipetted into a white 384 well plate (Sigma Aldrich M6186). A 5 μL aliquot of the Wee-1 enzyme was added to each well and the plate centrifuged for 1 min to ensure mixing of the enzyme and inhibitor.
The plate was incubated at room temperature for 30 minutes before the addition of 2.0 μg/mL of substrate and 30 μM ATP in a 5 μL aliquot. The plate was centrifuged for one minute and incubated for 1 h at RT.
15 µL of ADP-Glo stop reagent was added to each well to quench the reaction and deplete unconverted ATP. The plate was incubated for a further 40 min in the dark at RT.
30 μL of ADP-Glo kinase detection reagent was added to each well, converting ADP to ATP, catalysing the generation of luciferin by luciferase. The plate was shaken for 1 min, and incubated in the dark for an additional hour.
Luminescence from each well was detected using the Biotek Synergy4 HD plate reader and the percentage inhibition of kinase activity calculated for each inhibitor tested. Positive (kinase only) and negative (no kinase) controls were added to each plate to ensure specific interaction of kinase and inhibitor. The IC50 concentration for each inhibitor was calculated by plotting the percentage kinase inhibition against concentration of inhibitor and the curve generated by non-linear regression fitting.

T1 sequence (P30291 whole entry): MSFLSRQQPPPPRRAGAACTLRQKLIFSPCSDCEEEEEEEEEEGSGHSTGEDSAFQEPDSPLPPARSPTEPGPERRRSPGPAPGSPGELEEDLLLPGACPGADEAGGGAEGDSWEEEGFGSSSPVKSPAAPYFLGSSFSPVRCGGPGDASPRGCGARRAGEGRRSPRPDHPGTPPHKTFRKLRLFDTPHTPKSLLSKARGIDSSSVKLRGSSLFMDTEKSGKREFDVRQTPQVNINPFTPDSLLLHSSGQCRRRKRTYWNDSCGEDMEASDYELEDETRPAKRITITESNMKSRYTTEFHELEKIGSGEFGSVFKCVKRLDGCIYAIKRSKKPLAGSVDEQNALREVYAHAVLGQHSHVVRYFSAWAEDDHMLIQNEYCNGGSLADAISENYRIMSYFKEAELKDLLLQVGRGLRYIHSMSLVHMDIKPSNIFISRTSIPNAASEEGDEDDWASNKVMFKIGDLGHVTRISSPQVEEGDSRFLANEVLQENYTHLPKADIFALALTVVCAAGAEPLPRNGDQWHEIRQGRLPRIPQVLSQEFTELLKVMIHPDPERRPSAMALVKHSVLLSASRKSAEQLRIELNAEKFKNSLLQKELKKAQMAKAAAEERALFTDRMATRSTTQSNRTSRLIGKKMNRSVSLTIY

Question: How did the pIC50 turn out when `CN1CN(c2ccccc2Cl)C(=O)c2cnc(Nc3ccc(N4CC5C[C@H]4CN5)cc3)nc21` (stereo in doubt) [Example 104, 7-((4-((1S,4R)-2,5-diazabicyclo[2.2.1]heptan-2-yl)phenyl)amino)-3-(2-chlorophenyl)-1-methyl-2,3-dihydropyrimido[4,5-d]pyrimidin-4(1H)-one] was run?
Answer: Its pIC50 is no more than 7.00.

Question: With `COc1ccc(CN2CN(c3c(Cl)cccc3Cl)C(=O)c3cnc(Nc4ccc(N5CCNCC5)cc4)nc32)cc1` [Example 8, 3-(2,6-Dichlorophenyl)-1-(4-methoxybenzyl)-7-((4-(piperazin-1-yl)phenyl)amino)-2,3-dihydropyrimido[4,5-d]pyrimidin-4(1H)-one] as the compound, how does the pIC50 read?
Answer: Its pIC50 is no more than 7.00.

Question: With `CN1CN(c2ccccc2Cl)C(=O)c2cnc(Nc3ccc(N4CCNCC4)cc3)nc21` [Example 24, 3-(2-Chlorophenyl)-1-methyl-7-((4-(piperazin-1-yl)phenyl)amino)-2,3-dihydropyrimido[4,5-d]pyrimidin-4(1H)-one] as the compound, how does the pIC50 read?
Answer: Its pIC50 is 7.00 to 8.00.

Question: With `C[C@@H]1CN(C)[C@@H](C)CN1c1ccc(Nc2ncc3c(n2)N(C)CN(c2c(Cl)cccc2Cl)C3=O)cc1` [Example 45, 3-(2,6-dichlorophenyl)-1-methyl-7-((4-((2R,5S)-2,4,5-trimethylpiperazin-1-yl)phenyl)amino)-2,3-dihydropyrimido[4,5-d]pyrimidin-4(1H)-one] as the compound, how does the pIC50 read?
Answer: Its pIC50 is 7.00 to 8.00.

Question: `C[C@@H]1CN(c2ccc(Nc3ncc4c(n3)N(C)CN(c3c(Cl)cccc3Cl)C4=O)cc2F)CCN1C` [Example 47, (R)-3-(2,6-dichlorophenyl)-7-((4-(3,4-dimethylpiperazin-1-yl)-3-fluorophenyl)amino)-1-methyl-2,3-dihydropyrimido[4,5-d]pyrimidin-4(1H)-one] was tested. Which pIC50 did it give?
Answer: Its pIC50 is 7.00 to 8.00.

Question: How did the pIC50 turn out when `CN1CN(c2c(Cl)cccc2Cl)C(=O)c2cnc(Nc3ccc(N4CCN(C)[C@H](CO)C4)c(F)c3)nc21` [Example 50, (S)-3-(2,6-dichlorophenyl)-7-((3-fluoro-4-(3-(hydroxymethyl)-4-methylpiperazin-1-yl)phenyl)amino)-1-methyl-2,3-dihydropyrimido[4,5-d]pyrimidin-4(1H)-one] was run?
Answer: The pIC50 was 7.00 to 8.00.

Question: With `CN1CN(c2c(Cl)cccc2Cl)C(=O)c2cnc(Nc3ccc(N4CC5(CNC5)C4)cc3)nc21` [Example 51, 7-((4-(2,6-diazaspiro[3.3]heptan-2-yl)phenyl)amino)-3-(2,6-dichlorophenyl)-1-methyl-2,3-dihydropyrimido[4,5-d]pyrimidin-4(1H)-one] as the compound, how does the pIC50 read?
Answer: The pIC50 was 7.00 to 8.00.

Question: With `C[C@@H]1CN(c2ccc(Nc3ncc4c(n3)N(C)CN(c3c(Cl)cccc3Cl)C4=O)cc2)C[C@H](C)N1C` [Example 52, 3-(2,6-dichlorophenyl)-1-methyl-7-((4-((3R,5S)-3,4,5-trimethylpiperazin-1-yl)phenyl)amino)-2,3-dihydropyrimido[4,5-d]pyrimidin-4(1H)-one] as the compound, how does the pIC50 read?
Answer: Its pIC50 is 7.00 to 8.00.

Question: With `CN1CN(c2c(F)cccc2Cl)C(=O)c2cnc(Nc3ccc(N4C[C@@H]5C[C@H]4CN5)cc3)nc21` [Example 54, 7-((4-((1S,4S)-2,5-diazabicyclo[2.2.1]heptan-2-yl)phenyl)amino)-3-(2-chloro-6-fluorophenyl)-1-methyl-2,3-dihydropyrimido[4,5-d]pyrimidin-4(1H)-one] as the compound, how does the pIC50 read?
Answer: Its pIC50 is 7.00 to 8.00.

Question: With `CN1CN(c2c(F)cccc2Cl)C(=O)c2cnc(Nc3cccc(CO)c3)nc21` [Example 56, 3-(2-chloro-6-fluorophenyl)-7-((3-(hydroxymethyl)phenyl)amino)-1-methyl-2,3-dihydropyrimido[4,5-d]pyrimidin-4(1H)-one] as the compound, how does the pIC50 read?
Answer: Its pIC50 is no more than 7.00.

Question: How did the pIC50 turn out when `CN1CN(c2c(F)cccc2Cl)C(=O)c2cnc(Nc3ccc(N4CCOCC4)c(CO)c3)nc21` [Example 57] was run?
Answer: Its pIC50 is 7.00 to 8.00.

Question: How did the pIC50 turn out when `CN1CN(c2c(Cl)cccc2Cl)C(=O)c2cnc(Nc3ccc(N4CCNC(C(F)(F)F)C4)cc3)nc21` (stereo not drawn) [Example 62, 3-(2,6-dichlorophenyl)-1-methyl-7-((4-(3-(trifluoromethyl)piperazin-1-yl)phenyl)amino)-2,3-dihydropyrimido[4,5-d]pyrimidin-4(1H)-one] was run?
Answer: Its pIC50 is 7.00 to 8.00.
